Test results: ChEMBL document CHEMBL3808329, “Increase of rutin antioxidant activity by generating Maillard reaction products with lysine” (Bioorg Med Chem Lett, 2016)
The source made the active and inactive calls. The rule behind the calls is not given here.

Experiments:
[1] = Antioxidant activity assessed as DPPH scavenging activity at 20 to 100 ug/ml after 4 hrs in presence of lysine by spectrophotometric method; format: physicochemical
[2] = Antioxidant activity assessed as DPPH scavenging activity at 20 to 100 ug/ml and 120 degC after 4 hrs by spectrophotometric method; format: physicochemical
[3] = Drug metabolism assessed as increase in total phenolics at 120 degC after 4 hrs in presence of lysine by Folin-Ciocalteu method; format: physicochemical
HepG2 [4] = experiment: Antioxidant activity in human HepG2 cells assessed as reduction in Cu2+ induced oxidative stress at 50 to 200 ug/ml preincubated for 30 mins at 120 degC using DCFH-DA in presence of lysine by fluorescence assay; format: functional, cell-based
[5] = Metal chelating activity assessed as Cu2+ reducing activity at 120 degC after 4 hrs in presence of lysine; format: physicochemical
[6] = Antioxidant activity assessed as DPPH scavenging activity at 60 ug/ml and 120 degC after 4 hrs by spectrophotometric method; format: physicochemical
[7] = Retention time of compound by HPLC method; format: physicochemical
HepG2 [8] = experiment: Antioxidant activity in human HepG2 cells assessed as reduction in Cu2+ induced oxidative stress at 50 to 200 ug/ml preincubated for 30 mins using DCFH-DA by fluorescence assay; format: functional, cell-based
HepG2 [9] = experiment: Antioxidant activity in human HepG2 cells assessed as increase in Cu/Zn SOD activity at 200 ug/ml at 120 degC after 4 hrs relative to control; format: functional, cell-based
HepG2 [10] = experiment: Induction of Cu/Zn SOD gene expression in human HepG2 cells at 100 to 300 ug/ml at 120 degC after 4 hrs in presence of lysine by western blot analysis; format: functional, cell-based
HepG2 [11] = experiment: Antioxidant activity in human HepG2 cells assessed as reduction in Cu2+ induced oxidative stress at 50 to 200 ug/ml preincubated for 30 mins in presence of lysine using DCFH-DA by fluorescence assay; format: functional, cell-based
[12] = Antioxidant activity assessed as DPPH scavenging activity at 60 to 100 ug/ml and 120 degC after 4 hrs in presence of lysine by spectrophotometric method; format: physicochemical
HepG2 [13] = experiment: Antioxidant activity in human HepG2 cells assessed as increase in Cu/Zn SOD activity at 200 ug/ml in presence of lysine at 120 degC after 4 hrs relative to control; format: functional, cell-based

SMILES | Activity [1] | Activity [2] | Drug metabolism [3] | Activity [5] | Activity [6] | Activity [12] | Activity (HepG2 [4]) | Retention_time [7] | inhibition (HepG2 [8]) | Activity (HepG2 [9]) | Activity (HepG2 [10]) | inhibition (HepG2 [11]) | Activity (HepG2 [13])
C[C@@H]1O[C@@H](N[C@@H](CCCCN)C(=O)O)[C@H](O)[C@H](O)[C@H]1O | Active | Active | metabolite_detected | Active | – | – | Active | – | – | – | – | – | –
NCCCC[C@H](N[C@@H]1O[C@H](CO)[C@@H](O)[C@H](O)[C@H]1O)C(=O)O | Active | Active | metabolite_detected | Active | – | – | Active | – | – | – | – | – | –
NCCCC[C@H](N)C(=O)O [LYSINE] | – | – | – | – | – | – | – | 2.01 min | – | – | – | – | –

More lines, main results first:

Activity [1] | Activity [2] | Drug metabolism [3] | Activity [5] | Activity [6] | Activity [12] | SMILES | Activity (HepG2 [4]) | Retention_time [7] | inhibition (HepG2 [8]) | Activity (HepG2 [9]) | Activity (HepG2 [10]) | inhibition (HepG2 [11]) | Activity (HepG2 [13])
– | – | – | – | 90.6% | – | O=C1O[C@H]([C@@H](O)CO)C(O)=C1O [ASCORBIC ACID] | – | – | – | – | – | – | –
Dose-dependent effect | – | metabolite_detected | Active | – | Active | C[C@@H]1O[C@@H](OC[C@H]2O[C@@H](Oc3c(-c4ccc(O)c(O)c4)oc4cc(O)cc(O)c4c3=O)[C@H](O)[C@@H](O)[C@@H]2O)[C@H](O)[C@H](O)[C@H]1O [RUTIN] | Active | 8.94 min | inactive | Active | Active | inactive | Active
